Counter-ions that a name gives are not always drawn. Like-named read-outs stand apart in the source and are kept apart here.
Tests used:
MV4–11 AML cells [1] = settings: read-out: IC50 MV4–11 (antiproliferative activity), 48 h
human MAO A = molecular target: T1, human MAO A (Homo sapiens, UniProt P21397); assay: Anti-MAO assay; assay type: biochemical; settings: for % inhibition at 100 μM MAO A: NI = no inhibition; for inhibition at 100 µM: read-out: % inhibition at 100 μM MAO A
T1 sequence (P21397 1-527): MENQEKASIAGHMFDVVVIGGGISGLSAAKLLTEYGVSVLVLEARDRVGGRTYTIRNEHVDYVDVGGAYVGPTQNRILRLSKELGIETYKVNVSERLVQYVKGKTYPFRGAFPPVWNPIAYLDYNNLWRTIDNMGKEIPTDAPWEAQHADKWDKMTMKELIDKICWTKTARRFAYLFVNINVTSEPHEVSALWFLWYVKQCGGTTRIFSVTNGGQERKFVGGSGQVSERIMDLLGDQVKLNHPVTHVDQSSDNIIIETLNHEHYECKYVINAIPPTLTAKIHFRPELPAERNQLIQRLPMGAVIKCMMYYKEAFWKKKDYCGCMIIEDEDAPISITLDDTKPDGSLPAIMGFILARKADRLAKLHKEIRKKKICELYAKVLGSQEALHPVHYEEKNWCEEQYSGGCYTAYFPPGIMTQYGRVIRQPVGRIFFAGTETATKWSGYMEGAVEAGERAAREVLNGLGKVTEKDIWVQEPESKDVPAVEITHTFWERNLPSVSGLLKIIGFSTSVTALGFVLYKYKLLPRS

NB4 APL cells [2] = settings: read-out: IC50 NB4 (antiproliferative activity), 48 h
MV4–11 AML cells [3] = assay: cells; settings: Homo sapiens, MV4-11, 48 h, read-out: IC50 MV4–11 (antiproliferative activity)
NB4 APL cells [4] = assay: cells; settings: Homo sapiens, 48 h, read-out: IC50 NB4 (antiproliferative activity)
human MAO B [5] = molecular target: T2, human MAO B (Homo sapiens, UniProt P27338); assay: Anti-MAO assay; assay type: biochemical; settings: read-out: % inhibition at 100 μM MAO B
T2 sequence (P27338 1-520): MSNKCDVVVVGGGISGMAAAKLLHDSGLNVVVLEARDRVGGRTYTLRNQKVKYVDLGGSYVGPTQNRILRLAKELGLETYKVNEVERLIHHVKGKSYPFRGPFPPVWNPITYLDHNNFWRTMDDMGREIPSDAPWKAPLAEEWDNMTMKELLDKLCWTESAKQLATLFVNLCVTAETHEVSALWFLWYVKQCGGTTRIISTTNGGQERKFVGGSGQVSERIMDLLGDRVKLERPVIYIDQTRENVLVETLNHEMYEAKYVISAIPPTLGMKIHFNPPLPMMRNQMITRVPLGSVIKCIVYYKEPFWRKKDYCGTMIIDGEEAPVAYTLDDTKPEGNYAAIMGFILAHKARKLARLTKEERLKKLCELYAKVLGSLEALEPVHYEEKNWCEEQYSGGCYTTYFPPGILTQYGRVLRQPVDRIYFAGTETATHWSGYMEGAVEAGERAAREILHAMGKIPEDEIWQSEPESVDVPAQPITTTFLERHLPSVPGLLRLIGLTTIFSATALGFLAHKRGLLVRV

human MAO B [6] = molecular target: T2, human MAO B; settings: added for comparison, ref [13b], [19]; cited from earlier work
[7] = molecular target: human recombinant LSD1/CoREST enzymatic complex (Homo sapiens, UniProt O60341); assay: LSD1 enzyme inhibition assay; assay type: biochemical
[8] = Microsomal stability in liver microsomes; assay type: in vitro ADME; settings: human, pH 7.4
[9] = Microsomal stability in liver microsomes; assay type: in vitro ADME; settings: mouse, pH 7.4
[10] = read-out: LSD1, IC50, LSD1/CoREST, 15 min preincubation, NI = no inhibition

SMILES | IC50 (MV4–11 AML cells [3]) [µM] | IC50 (NB4 APL cells [4]) [µM] | IC50 [7] [nM] | IC50 [7, 10] [nM] | other results
N[C@@H]1C[C@H]1c1ccccc1 (racemic) [TCP, tranylcypromine, reference compound] |  |  |  |  | IC50 (MV4–11 AML cells [1]): > 100 µM; % inhibition at 100 μM MAO A (human MAO A): 79%; IC50 (NB4 APL cells [2]): > 100 µM
NC1CC1c1ccc(NC(=O)OCc2ccccc2)cc1 (centres unmarked) [1b, benzyl [4-(2-aminocyclopropyl)phenyl]carbamate] | 22.4 ± 3.8 | 25 ± 3.2 |  |  | inhibition at 100 µM (human MAO A): 96%; inhibition at 100 µM (human MAO B [5]): 37%
NC1CC1c1ccc(NC(=O)C(Cc2ccccc2)NC(=O)OCc2ccccc2)cc1 (centres unmarked) [2a] |  |  |  |  | % inhibition at 100 μM MAO B (human MAO B [6]): 1%
Cl.NC1CC1c1cccc(NC(=O)C(Cc2ccccc2)NC(=O)OCc2ccccc2)c1 (centres unmarked) [2b, Benzyl (1-((3-(2-aminocyclopropyl)phenyl)amino)-1-oxo-3-phenylpropan-2-yl)carbamate hydrochloride] | 24.2 ± 3.1 | 42.7 ± 5.8 | 18100 ± 2900 |  | fold decrease of anti-LSD1 potency relative to 2a [7]: > 120 fold
NC1CC1c1ccc(NC(=O)c2ccc(NC(=O)OCc3ccccc3)cc2)cc1 (centres unmarked) [3a, Benzyl (4-((4-(2-aminocyclopropyl)phenyl)carbamoyl)phenyl)carbamate hydrochloride] | 0.4 ± 0.01 | 0.6 ± 0.02 | 90 ± 12 |  | microsomal CLint at 1 μM [8]: 6.7 ± 1.1 µL/min/mg; inhibition at 100 µM (human MAO A): 37%; microsomal CLint at 1 μM [9]: 7.1 ± 2.2 µL/min/mg; inhibition at 100 µM (human MAO B [5]): 8%
CN1CCN(c2cc(C(=O)Nc3ccc(C4CC4N)cc3)ccc2NC(=O)OCc2ccccc2)CC1 (centres unmarked) [3c, Benzyl 4-(4-(2-aminocyclopropyl)phenylcarbamoyl)-2-(4-methylpiperazin-1-yl)phenylcarbamate hydrochloride] | 2.5 ± 0.1 | 0.9 ± 0.06 | 89 ± 10 |  | inhibition at 100 µM (human MAO A): 69%; inhibition at 100 µM (human MAO B [5]): 55%
NC1CC1c1ccc(NC(=O)c2ccc(Oc3ccccc3)c(NC(=O)OCc3ccccc3)c2)cc1 (centres unmarked) [3h, Benzyl (5-((4-(2-aminocyclopropyl)phenyl)carbamoyl)-2-phenoxyphenyl)carbamate hydrochloride] | 3.3 ± 0.3 | 5.4 ± 0.6 | 143 ± 28 |  | 
NC1CC1c1ccc(NC(=O)c2ccc(Sc3ccccc3)c(NC(=O)OCc3ccccc3)c2)cc1 (centres unmarked) [3i, Benzyl (5-((4-(2-aminocyclopropyl)phenyl)carbamoyl)-2-(phenylthio)phenyl)carbamate hydrochloride] | 21.4 ± 3.3 | 23.2 ± 3.8 | 73 ± 11 |  | 
NC1CC1c1ccc(NC(=O)c2ccccc2NC(=O)OCc2ccccc2)cc1 (centres unmarked) [3j, Benzyl (2-((4-(2-aminocyclopropyl)phenyl)carbamoyl)phenyl)carbamate hydrochloride] | 8.2 ± 1.2 | 8.1 ± 0.9 | 146 ± 22 |  | inhibition at 100 µM (human MAO A): 72%; inhibition at 100 µM (human MAO B [5]): 17%
Cl.NC1CC1c1ccc(NC(=O)c2ccc(Br)cc2NC(=O)OCc2ccccc2)cc1 (centres unmarked) [3k, Benzyl (2-((4-(2-aminocyclopropyl)phenyl)carbamoyl)-5-bromophenyl)carbamate hydrochloridrate] |  |  |  | 159 ± 34 | IC50 (MV4–11 AML cells [1]): 6.2 ± 0.7 µM; % inhibition at 100 μM MAO A (human MAO A): 94%; IC50 (NB4 APL cells [2]): 9.3 ± 1 µM
NC1CC1c1ccc(NC(=O)c2ccc(-c3ccccc3)cc2NC(=O)OCc2ccccc2)cc1 (centres unmarked) [3l, Benzyl (4-((4-(2-aminocyclopropyl)phenyl)carbamoyl)-[1,1’-biphenyl]-3-yl)carbamate hydrochloride] | 8.1 ± 1 | 7.6 ± 0.8 | 135 ± 29 |  | 
NC1CC1c1ccc(NC(=O)c2cc(NC(=O)c3ccccc3)ccc2OCC(=O)Nc2ccccc2)cc1 (centres unmarked) [3m, N-(4-(2-aminocyclopropyl)phenyl)-5-benzamido-2-(2-oxo-2-(phenylamino)ethoxy)benzamide hydrochloride] | 5.6 ± 1.1 | 5.5 ± 1.4 | 3900 ± 200 |  | 
NC1CC1c1ccc(NC(=O)c2cc(NC(=O)c3ccccc3)ccc2OCC(=O)NCc2ccccc2)cc1 (centres unmarked) [3n, N-(4-(2-aminocyclopropyl)phenyl)-5-benzamido-2-(2-(benzylamino)-2-oxoethoxy)benzamide] | 3.3 ± 0.6 | 3.8 ± 0.8 | 1700 ± 50 |  | 
CNC1CC1c1ccccc1 (centres unmarked) [4a, N-methyl-TCP] |  |  |  | 10800 ± 1100 | LSD1/CoREST potency relative to TCP (fold less effective) [7]: same potency of TCP
CN(C)C1CC1c1ccccc1 (centres unmarked) [4b, N,N-dimethyl-TCP] |  |  |  | 56200 ± 7800 | LSD1/CoREST potency relative to TCP (fold less effective) [7]: 5 fold
NC(=O)C1CC1c1ccccc1 (centres unmarked) [4c, 2-Phenylcyclopropane-1-carboxamide] |  |  |  | > 100000 | 
NNC(=O)C1CC1c1ccccc1 (centres unmarked) [4d, 2-phenylcyclopropane-1-carbohydrazide] |  |  |  | > 100000 | 
NC1(c2ccccc2)CC1 [4e, 1-Phenylcyclopropan-1-amine hydrochloride] |  |  |  | > 100000 | 
NC1(c2ccc(NC(=O)C(Cc3ccccc3)NC(=O)OCc3ccccc3)cc2)CC1 (centres unmarked) [4f, Benzyl (1-((4-(1-aminocyclopropyl)-phenyl)-amino)-1-oxo-3-phenylpropan-2-yl)-carbamate hydrochloride] |  |  |  | > 100000 | 
NC(=O)C1(c2ccccc2)CC1 [4g, 1-Phenylcyclopropane-1-carboxamide] |  |  |  | > 100000 | 
NCC1(c2ccccc2)CC1 [4h, (1-phenylcyclopropyl)methanamine] |  |  |  | > 100000 | 
NN1CC1c1ccccc1 (centres unmarked) [4i, 2-phenylaziridin-1-amine] |  |  |  | > 100000 | 
